What was measured:
[1] = Inhibition of asexual blood stage of Plasmodium falciparum 3D7 PKA assessed as inhibition of parasite proliferation after 72 hrs by Malstat assay
[2] = Inhibition of asexual blood stage of chloroquine-resistant Plasmodium falciparum W2mef PKA assessed as inhibition of parasite proliferation after 72 hrs by Malstat assay

Which IC50 [1] does the source give for `CCCCNc1nc(C)c(C(N)=O)c2ccccc12` here?
Its IC50 is over 50 µM.

What does the source list for `Cc1nc(NC(C)(C)C)c2ccccc2c1C#N`?
IC50 [1]: 5.2 µM; IC50 [2]: 4.2 µM

Which IC50 [1] does the source give for `CCCCCNc1nc(C)c(C#N)c2ccccc12` here?
Its IC50 is 8.6 µM.

What about the IC50 [2] of the same compound?
The IC50 was 9.6 µM.

For `Cc1nc(NC2CCCCC2)c2ccccc2c1C#N`, which IC50 [1] is on record?
The IC50 was over 50 µM.

And the IC50 [2]?
The IC50 was over 50 µM.

With `Cc1nc(NCc2ccccc2)c2ccccc2c1C#N` as the compound, how does the IC50 [1] read?
Its IC50 is over 50 µM.

What about the IC50 [2] of the same compound?
The IC50 was over 50 µM.

Which IC50 [1] does the source give for `CCCCNc1nc(C)c(C#N)c2ccccc12` here?
Its IC50 is 34 µM.

And the IC50 [2]?
Its IC50 is 33 µM.

With `Cc1nc(NCC(C)C)c2ccccc2c1C#N` as the compound, how does the IC50 [1] read?
The IC50 was over 50 µM.

And the IC50 [2]?
The IC50 was 28 µM.

What does the source list for `CCCCNc1nc(CC)c(C#N)c2ccccc12`?
IC50 [1]: 25 µM; IC50 [2]: 22 µM

With `CCNc1nc(C)c(C#N)c2ccccc12` as the compound, how does the IC50 [1] read?
The IC50 was over 50 µM.

What about the IC50 [2] of the same compound?
Its IC50 is over 50 µM.

For `CCCNc1nc(C)c(C#N)c2ccccc12`, which IC50 [1] is on record?
The IC50 was over 50 µM.

What about the IC50 [2] of the same compound?
The IC50 was over 50 µM.

Which results are given for `Cc1nc(N)c2ccccc2c1C#N`?
IC50 [1]: 34 µM; IC50 [2]: 36 µM

Which IC50 [1] does the source give for `CCCCOc1nc(C)c(C#N)c2ccccc12` here?
Its IC50 is 36 µM.

And the IC50 [2]?
The IC50 was 16 µM.
